From ChEMBL document CHEMBL5107967, “Targeting EZH2 for cancer therapy: From current progress to novel strategies” (Eur J Med Chem, 2022)
Values after ≈ are worked out from the molar mass of the structure shown.

Columns and labels:
[1] = organism: Homo sapiens; assay: Selectivity ratio of IC50 for EZH1 (unknown origin) to IC50 for EZH2 (unknown origin)
[2] = target: T1, Histone-lysine N-methyltransferase EZH2 (Homo sapiens, UniProt Q15910); assay: Displacement of [3H-SAM] from EZH2 in PRC2 complex (unknown origin) incubated for 1 hr by […] assay
[3] = test system: K562; assay: Antiproliferative activity against human K562 cells assessed as inhibition of cell proliferation incubated for 48 hrs by MTT assay; assay type: functional, cell-based; conditions: K562, 48 h
[4] = Solubility of the compound in water; assay type: physicochemical
[5] = Binding affinity to PRC2 (unknown origin) assessed as inhibition constant; design: species or system Homo sapiens
[6] = target: T1, Histone-lysine N-methyltransferase EZH2; assay: Inhibition of wild-type EZH2 in PRC2 complex (unknown origin) using monomethylated H3K27 as substrate by radiometric assay
[7] = Inhibition of N-terminal 6xHis SUMO-tagged human EED expressed in Escherichia coli BL21 (DE3)/FITC-labeled EZH2 (39 to 63 residues)(unknown origin) interaction incubated for 2 hrs by fluorescence polarization based competitive assay
[8] = test system: PC-3; assay: Antiproliferative activity against human PC-3 cells assessed as inhibition of cell proliferation incubated for 3 to 7 days followed by replacement of medium containing compound every 3 days by CCK8 assay; assay type: functional, cell-based
[9] = test system: SK-OV-3; assay: Antiproliferative activity against human SK-OV-3 cells assessed as inhibition of cell proliferation incubated for 3 to 7 days followed by replacement of medium containing compound every 3 days by CCK8 assay; assay type: functional, cell-based

T1 sequence (Q15910 whole entry): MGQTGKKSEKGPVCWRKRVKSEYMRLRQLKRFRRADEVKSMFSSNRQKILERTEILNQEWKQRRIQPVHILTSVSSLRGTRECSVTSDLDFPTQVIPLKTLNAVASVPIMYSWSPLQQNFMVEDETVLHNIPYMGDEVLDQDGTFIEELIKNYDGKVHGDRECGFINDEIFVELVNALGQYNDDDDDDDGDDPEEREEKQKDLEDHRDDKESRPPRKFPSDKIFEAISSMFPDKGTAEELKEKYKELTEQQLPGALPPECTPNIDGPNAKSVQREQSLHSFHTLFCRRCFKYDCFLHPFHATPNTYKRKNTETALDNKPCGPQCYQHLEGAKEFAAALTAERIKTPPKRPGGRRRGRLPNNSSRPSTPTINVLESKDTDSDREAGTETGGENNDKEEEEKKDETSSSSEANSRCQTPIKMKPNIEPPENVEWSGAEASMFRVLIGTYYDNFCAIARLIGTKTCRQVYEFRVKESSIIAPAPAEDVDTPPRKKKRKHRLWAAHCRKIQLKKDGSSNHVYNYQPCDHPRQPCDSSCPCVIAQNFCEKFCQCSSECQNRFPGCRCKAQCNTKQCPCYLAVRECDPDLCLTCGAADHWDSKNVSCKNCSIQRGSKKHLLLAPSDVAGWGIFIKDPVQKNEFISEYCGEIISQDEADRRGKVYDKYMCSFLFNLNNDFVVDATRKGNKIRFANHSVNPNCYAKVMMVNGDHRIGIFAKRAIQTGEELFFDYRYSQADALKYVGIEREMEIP

Q: Which Ratio IC50 [1] does the source give for Cc1cc(C)c(CNC(=O)c2cc(C)n(-c3cccc(N4CCCCC4)c3)c2C)c(=O)[nH]1 here?
A: The Ratio IC50 was 10.

Q: What about the IC50 [2] of the same compound?
A: The IC50 was 1.06 µM.

Q: For Cc1cc(C)c(CNC(=O)c2c(C)cn(Cc3ccc(C(C(F)(F)F)(C(F)(F)F)C(F)(F)F)cc3)c2C)c(=O)[nH]1, which IC50 [3] is on record?
A: The IC50 was 58.7 µM.

Q: For CCN(c1cc(-c2ccc(CN3CCN(C)CC3)cc2)cc(C(=O)NCc2c3c(c(C)[nH]c2=O)CCCC3)c1C)C1CCOCC1, which solubility ([4]; water, read-out: solubility) is on record?
A: The solubility was 3 µg/mL (≈ 4.79 µM).

Q: What does the source list for CCN(c1cc(-c2ccc(CN3CCOCC3)cc2)cc(C(=O)NCc2c(C)cc(C)[nH]c2=O)c1C)C1CCOCC1 [TAZEMETOSTAT]?
A: solubility ([4]; buffer): 185.3 µg/mL (≈ 324 µM); IC50 [3]: 59.2 µM

Q: For Cc1cc(C)c(CNC(=O)c2cc(-c3ccc(CN4CCOCC4)cc3)cc3c2cnn3C2CCCC2)c(=O)[nH]1, which Ki [5] is on record?
A: Its Ki is 0.024 µM.

Q: For COc1cc(C)[nH]c(=O)c1CNC(=O)c1cccc2c1cc(C)n2[C@H](C)C1CCOCC1, which IC50 [6] is on record?
A: Its IC50 is 0.0005 µM.

Q: With Cc1ccc(C(C2=C(O)CC(C)(C)CC2=O)C2C(=O)CC(C)(C)CC2=O)s1 (stereo unspecified) as the compound, how does the IC50 [7] read?
A: Its IC50 is 63.9 µM.

Q: Which results are given for Cc1cc(C)c(CNC(=O)c2cc(C)n(-c3cccc(N4CCOCC4)c3)c2C)c(=O)[nH]1?
A: Ratio IC50 [1]: 10; IC50 [2]: 4.06 µM

Q: What does the source list for CC1=C(CC(=O)NCCc2c[nH]c3ccccc23)C(=O)OC2C(O)=C(O)C=CC12 (stereo unspecified)?
A: IC50 [8]: 5.39 µM; IC50 [9]: 7.86 µM

Q: With Cc1sc(NC(=O)CCCCC(=O)Nc2sc(C)c(C)c2C(N)=O)c(C(N)=O)c1C as the compound, how does the IC50 [7] read?
A: The IC50 was 54.9 µM.

Q: For CC[C@H](C)n1cc(C)c2c(C(=O)NCc3c(C)cc(C)[nH]c3=O)cc(-c3ccc(N4CCNCC4)nc3)cc21 [GSK2816126], which IC50 [8] is on record?
A: Its IC50 is 10 µM.

Q: And the IC50 [9]?
A: Its IC50 is 10.5 µM.
